What all share (assay type): cell-based
The subject of experiment [1] is melanoma cell line RPMI-7951. The experiment in a line: Cytotoxicity in cancer cell lines (CellTiter-Glo), RPMI-7951. Conditions: Homo sapiens, RPMI-7951 cells, mean of three tests. From the text: (§1) All cells were obtained from ATCC. […] Normocin® was obtained from InvivoGen. FBS was obtained from Gibco. […] All test compounds were synthesized as described herein.

The subject of experiment [2] is glioblastoma cell line U87. Nature of the experiment: Cytotoxicity in cancer cell lines (CellTiter-Glo), U87. Conditions: Homo sapiens, U-87 MG, U87 cells, mean of three tests.
Text: as §1
In general terms: ATP-based viability assays read luminescence as a measure of living cells.

Experiment [3] concerns melanoma cell line A375. Nature of the experiment: Cytotoxicity in cancer cell lines (CellTiter-Glo), A375. Conditions: Homo sapiens, A-375, A375 cells, mean of three tests.
Text: as §1

For experiment [4], the system named is immortalized human T lymphocyte Jurkat cells. Nature of the experiment: Cytotoxicity in cancer cell lines (CellTiter-Glo), Jurkat. Conditions: mean of three tests.
Text: as §1

Experiment [5] has as its system human pancreatic carcinoma cell line PL45. The experiment in a line: Cytotoxicity in cancer cell lines (CellTiter-Glo), PL45. Conditions: PL45 cells, mean of three tests.
Text: as §1

The mark [6] stands for this setting: 48 hours, read-out: Cytotoxicity EC50 at 48 hours, A375.
Setting [7] is: 48 hours, read-out: Cytotoxicity EC50 at 48 hours, PL45.

Read-outs that look alike come from different tables or passages of the source.

The source of these data is US12404259B2, “Inhibitors of extracellular signal-regulated kinase” (GEN1E LIFESCIENCES INC., priority 2023, dated 2025).

One may read the EC50 as the concentration giving half of the maximal effect.

Turning to `O=S1(=O)C=CC(OS(=O)(=O)c2ccc(Oc3ccccc3)cc2)C1` (centres unmarked) [Compound 1, 1,1-dioxido-2,3-dihydrothiophen-3-yl 4-phenoxybenzenesulfonate], the EC50 came to 600 nM in experiment [1] (48 hours, read-out: Cytotoxicity EC50 at 48 hours, RPMI); 200 nM in experiment [1] (72 hours, read-out: Cytotoxicity EC50 at 72 hours, RPMI); 1300 nM in experiment [2] (48 hours, read-out: Cytotoxicity EC50 at 48 hours, U87); 900 nM in experiment [2] (72 hours, read-out: Cytotoxicity EC50 at 72 hours, U87); 2500 nM in experiment [3] (setting [6]); 13000 nM in experiment [3] (72 hours, read-out: Cytotoxicity EC50 at 72 hours, A375). In addition, the EC50 in experiment [4] (48 hours, read-out: Cytotoxicity EC50 at 48 hours, Jurkat) was determined as 400 nM; in experiment [4] (72 hours, read-out: Cytotoxicity EC50 at 72 hours, Jurkat), 200 nM; in experiment [5] (setting [7]) it was 2100 nM; in experiment [5] (72 hours, read-out: Cytotoxicity EC50 at 72 hours, PL45), 200 nM.
`O=S1(=O)C=C[C@H](OS(=O)(=O)c2ccc(Oc3ccccc3)cc2)C1` [Compound 1a, (S)-1,1-dioxido-2,3-dihydrothiophen-3-yl 4-phenoxybenzenesulfonate]: the EC50 is 1300 nM in experiment [3] (setting [6]) and 2100 nM in experiment [5] (setting [7]).
`O=S1(=O)C=C[C@@H](OS(=O)(=O)c2ccc(Oc3ccccc3)cc2)C1` [Compound 1b, (R)-1,1-dioxido-2,3-dihydrothiophen-3-yl 4-phenoxybenzenesulfonate]: the EC50 in experiment [3] (setting [6]) is 2500 nM; in experiment [5] (setting [7]), 3000 nM.
